Values quoted from earlier work as cited in US10285958B2, “Genotype- or phenotype-based drug formulation” (BAYER AKTIENGESELLSCHAFT, priority 2012, dated 2019).
Where two headings read alike, the source gives them in different places.

How the values were obtained:
[1] = target: polymorphic cytochrome P450 (CYP) 2D6 (Homo sapiens, UniProt P10635); conditions: humans
Chain of polymorphic cytochrome P450 (CYP) 2D6 (P10635 whole entry): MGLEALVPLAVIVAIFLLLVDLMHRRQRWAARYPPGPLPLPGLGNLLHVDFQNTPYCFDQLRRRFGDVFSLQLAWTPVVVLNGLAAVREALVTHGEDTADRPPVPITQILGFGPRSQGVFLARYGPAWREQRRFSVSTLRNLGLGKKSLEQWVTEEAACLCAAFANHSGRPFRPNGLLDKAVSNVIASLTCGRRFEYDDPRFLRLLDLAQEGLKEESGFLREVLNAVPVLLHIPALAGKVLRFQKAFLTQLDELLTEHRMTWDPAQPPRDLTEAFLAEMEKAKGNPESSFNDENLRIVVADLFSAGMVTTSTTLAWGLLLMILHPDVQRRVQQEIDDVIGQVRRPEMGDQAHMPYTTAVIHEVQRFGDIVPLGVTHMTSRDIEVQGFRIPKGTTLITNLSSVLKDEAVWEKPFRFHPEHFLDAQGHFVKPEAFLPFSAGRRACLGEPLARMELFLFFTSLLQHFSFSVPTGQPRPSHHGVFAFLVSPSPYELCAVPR

Compound: CC/C(=C(\c1ccccc1)c1ccc(OCCNC)cc1)c1ccccc1 [N-desmethyltamoxifen]
- formation of endoxifen from N-desmethyltamoxifen via CYP2D6 [1]: exclusively

Compound: CC/C(=C(\c1ccc(O)cc1)c1ccc(OCCNC)cc1)c1ccccc1 [endoxifen]
- endoxifen concentration in blood under tamoxifen therapy (CYP2D6 IM, versus EM or UM phenotype): distinctly below
- endoxifen concentration in blood under tamoxifen therapy (CYP2D6 PM): very low

Compound: CC/C(=C(\c1ccccc1)c1ccc(OCCN(C)C)cc1)c1ccccc1 [tamoxifen]
- time until steady-state concentration of endoxifen is achieved (standard dosage 20 mg of tamoxifen, European patients of CYP2D6 EM genotype or phenotype): about 80 days
- endoxifen concentrations after increased tamoxifen dose (up to 40 mg of tamoxifen per day as two individual doses, CYP2D6 IMs and PMs, versus EMs on 20 mg): did not lead to the endoxifen concentrations observed in CYP2D6 EMs
